US20150232900A1, “PAPER FOLDING METHOD AND DEVICE FOR MANUFACTURING FILTER CARTRIDGES” (MYKO TECH PRIVATE LIMITED, priority 2012, published 2015)

Legend:
Type in all cases: cell-based
[1] = test system: Human Cytomegalovirus AD-169; assay: Plaque forming unit (PFU) inhibition assay, Human Cytomegalovirus AD-169 in MRC5 cell line; details: Human Cytomegalovirus AD-169, MRC5 cells, positive control, tested 0.33-100 μM
Experimental: EPS from the thraustochytrid designated MT-5 were tested for inhibition of Cytomegalovirus. A stock solution of 20 mg/ml of the EPS was prepared by solubilizing in 10% DMSO for injection into the cell lines infected by the virus.
Various dilutions of the stock EPS were prepared in the tissue culture medium, Dulbecco ? Modified Eagle medium with 2% fetal bovine serum and antibiotics. The dilutions were: (1) 100 ? /ml; (2) 33 ? /ml; (3) 10 ? /ml; (4) 3.3 μg/ml; (5) 1.0 ? /ml; (6) 0.33 μg/ml. A plaque forming unit (PFU) inhibition assay in 6-well plates in vitro was carried out. A known concentration of cells from MRC5 cell line was used to seed 6-well or 12-well plates for 24 hours. Each of the 6 different concentrations of the EPS was then added to duplicate wells and incubated for 1 hour and then approximately 50-100 plaque forming units of the Human Cytomegalovirus AD-169 in 10 ? were added to each well. Virus was allowed to absorb to the cells for 2 hours. After the incubation the virus was removed and agarose solution with EPS at each different was added to the appropriate infected well. Plates were incubated in a 37° C. CO2 incubator for 5 days. The drug Acyclovir was kept as a positive control, at concentrations of 100, 33, 10, 3.3, 1.0 and 0.33 μM concentrations. […] Plaques were counted and numbers recorded. […]

Human Adenovirus 5 = assay: Plaque forming unit (PFU) inhibition assay, Human Adenovirus 5 in A549 cell line; details: Human Adenovirus 5, A549 cells, positive control, tested 0.33-100 μM; not at less
Experimental: EPS from two thraustochytrids, designated MT-5 and MT-6 were tested for inhibition of Adenovirus. A stock solution of 20 mg/ml of the EPS was prepared by solubilizing in 10% DMSO for injection into the cell lines infected by the virus. Various dilutions of the stock EPS were prepared in the tissue culture medium, Dulbecco ? Modified Eagle medium with 2% fetal bovine serum and antibiotics. The dilutions were: (1) 100 μg/ml; (2) 33 μg/ml; (3) 10 μg/ml; (4) 3.3 μg/ml; (5) 1.0 μg/ml; (6) 0.33 μg/ml. A plaque forming unit (PFU) inhibition assay in 6-well plates in vitro was carried out. A known concentration of cells from A549 cell line was used to seed 6-well or 12-well plates for 24 hours. Each of the 6 different concentrations of the EPS was then added to duplicate wells and incubated for 1 hour and then approximately 50-100 plaque forming units of Human Adenovirus 5 in 10 ? were added to each well. Virus was allowed to absorb to the cells for 2 hours. After the incubation the virus was removed and agarose solution with EPS at each different was added to the appropriate infected well. Plates were incubated in a 37° C. CO2 incubator for 5 days. The drug Cidofovir was kept as a positive control, at concentrations of 100, 33, 10, 3.3, 1.0 and 0.33 μM concentrations. […] Plaques were counted and numbers recorded. […]

[2] = test system: Retrovirus XMRV (Xenotropic Murine Leukemia Virus); assay: Focus forming unit (FFU) inhibition assay, Retrovirus XMRV in PG4 cell line; details: PG4 cells, positive control, tested 0.33-100 μM
Experimental: EPS from two thraustochytrids designated MT-5 and MT-6 were tested for inhibition of retrovirus A stock solution of 20 mg/ml of the EPS was prepared by solubilizing in 10% DMSO for injection into the cell lines infected by the virus. Various dilutions of the stock EPS were prepared in the tissue culture medium, Dulbecco ? Modified Eagle medium with 2% fetal bovine serum and antibiotics. The dilutions were: (1) 100 ? /ml; (2) 33 ? /ml; 10 ? /ml; (4) 3.3 μg/ml; (5) 1.0 μg/ml; (6) 0.33 μg/ml. A focus forming unit (FFU) inhibition assay in 6-well plates in vitro was carried out. A known concentration of cells from PG4 cell line was used to seed 6-well or 12-well plates for 24 hours. Each of the 6 different concentrations of the EPS was then added to duplicate wells and incubated for 1 hour and then approximately 50-100 focus forming units of the Retrovirus XMRV (Xenotropic Murine Leukemia Virus) in 10 ? were added to each well. Virus was allowed to absorb to the cells for 2 hours. After the incubation the virus was removed and agarose solution with EPS at each different was added to the appropriate infected well Plates were incubated in a 37° C. CO2 incubator for 5 days. The drug Tenofovir was kept as a positive control, at concentrations of 100, 33, 10, 3.3, 1.0 and 0.33 μM concentrations. At the end of incubation, cultures were fixed and stained with crystal violet to visualize the foci. […]

SMILES: Nc1nc2c(ncn2COCCO)c(=O)[nH]1 [Acyclovir]
- effective concentration (not effective at any concentration tested, up to the maximum) [1]: > 100.0 µM

SMILES: Nc1ccn(C[C@@H](CO)OCP(=O)(O)O)c(=O)n1 [Cidofovir]
- concentration that completely inhibited plaque formation (Human Adenovirus 5): 100 µM

SMILES: C[C@H](Cn1cnc2c(N)ncnc21)OCP(=O)(O)O [Tenofovir]
- concentration above which the drug was effective (viral foci) [2]: > 10.0 µM
- concentration that completely inhibited focal formation [2]: 100 µM
